Results published in paper PMC10526274, “Epithelial-Immune Cell Crosstalk Determines the Activation of Immune Cells In Vitro by the Human Cathelicidin LL-37 at Low Physiological Concentrations” (Biomolecules, 2023).
Where “and” joins values, the source holds several entries; their conditions need not be identical. Identical values can stand only once.

Test system: primary blood monocytes
Assay: Multiplex xMAP cytokine levels, primary blood monocytes alone stimulated with LL-37
Format: cell-based, human
Details: 1 µM LL-37, 24 h
Protocol: Peripheral blood mononuclear cells (PBMCs) from a healthy donor were purchased from the American Type Culture Collection (ATCC PCS-800-011). Blood monocytes were isolated from PBMCs by plastic adhesion. Mature monocyte-derived dendritic cells (moDCs) were generated in vitro from peripheral blood monocytes, according to Nair et al.. Briefly, monocytes were cultured in a humidified CO2-incubator (5% CO2, 37 °C) in the complete RPMI-1640 medium (Gibco) with 10% FBS, antibiotics, and supplemented with a cytokine cocktail containing 500 U/mL rhIL-4 and 800 U/mL rhGM-CSF (both Sci-Store, Moscow, Russia). On the third day, the medium was replaced by the same fresh medium with FBS, antibiotics, and the cytokine cocktail. Induction of maturation of the immature monocyte-derived dendritic cells was performed on the 5th day by replacing the medium with the complete RPMI-1640 medium (Gibco) with 10% FBS and antibiotics, supplemented with a cytokine cocktail containing 500 U/mL rhIL-4, 800 U/mL rhGM-CSF (both Sci-Store, Moscow, Russia), and 100 U/mL rhTNF-α (Sigma-Aldrich), and subjected to subsequent incubation of the culture for 4 more days.
Primary blood monocytes, moDCs, and NKT cells were seeded in 600 µL of complete RPMI-1640 with 10% Human AB serum (Capricorn Scientific, Ebsdorfergrund, Germany) and supplemented with 1X antibiotic–antimycotic solution into the wells of 24-well plates at a density of 3–7 × 10^5 cells/well 24 h before the experiment. Then, 24 h later, the medium in each well was replaced by the same medium with 1 µM of LL-37 for the sample wells or fresh medium alone for the control wells, and the permeable inserts with the Caco-2 monolayer with TEER > 400 Ω × cm^2, containing 400 μL of the complete medium in their apical chamber, were immediately placed into the appropriate wells. Also, inserts with the Caco-2 monolayer were placed in cell-free wells of 24-well plates in the same complete RPMI-1640 medium with or without 1 µM of LL-37 as controls. Cells were kept in a CO2-incubator (5% CO2, 37 °C) for another 24 h. Then, culture medium from each well was collected, centrifuged, and frozen at −70 °C.
To quantitatively evaluate a broad spectrum of analytes secreted by human cell cultures at the protein level, multiplex xMAP technology was used. The chosen panel (cat. #HCYTA-60K-PX48, Merck, Darmstadt, Germany) included 48 different magnetic beads with primary antibodies to the following cytokines, chemokines, and growth factors: CCL11 (Eotaxin-1), Flt-3 ligand, CX3CL1 (Fractalkine), sCD40L, FGF-2, EGF, GROα, GM-CSF, G-CSF, IL-1RA, IL-1α, IL-1β, IL-2, IL-3, IL-4, IL-5, IL-6, IL-7, CXCL8 (IL-8), IL-9, IL-10, IL-12p40, IL-12p70, IL-13, IL-15, IL-17A (CTLA8), IL-17E (IL-25), IL-17F, IL-18, IL-22, IL-27, IFNγ, IFNα2, CXCL10 (IP-10), CCL2 (MCP-1), CCL7 (MCP-3), CCL22 (MDC), CXCL9 (MIG), CCL3 (MIP-1α), CCL4 (MIP-1β), CCL5 (RANTES), M-CSF, PDGF-AA, PDGF-AB/BB, TNFα, TNFβ, TGFα, and VEGF-A. The assay was performed in accordance with the manufacturer’s instructions with overnight incubation of the samples with primary antibodies, and the plate was read on a MAGPIX System (Merck) using the xPONENT 4.2 software (Merck). The acquired fluorescence data were analyzed by the MILLIPLEX Analyst v5.1 software (Merck), which realized an advanced curve-fitting algorithm. Levels of the analytes in control and experimental samples were compared with an unpaired two-sample t-test using GraphPad Prism v.8.0.1 (GraphPad Software, Inc., San Diego, CA, USA). The p-values ≤ 0.05 were considered significant.

Q: “LL-37: the only human cathelicidin, host defense antimicrobial peptide of 37 a.a. residues, produced by solid-phase peptide synthesis” was tested. Which RANTES level (n=2, control 1.06) did it give?
A: Its RANTES level is 181.22 pg/mL.

Q: What about the FLT-3L level (n=2, control 1.18) of the same substance?
A: Its FLT-3L level is 0.93 pg/mL.

Q: And the IL-2 level (n=2, control 1.49)?
A: The IL-2 level was 0.99 pg/mL.

Q: And the IL-18 level (n=2, control 1.74)?
A: The IL-18 level was 1.22 pg/mL.

Q: What about the IFNg level (n=2, control 1.82) of the same substance?
A: Its IFNg level is 1.8 pg/mL.

Q: And the IL-4 level (n=2, control 1.92)?
A: Its IL-4 level is 1.63 pg/mL.

Q: And the IL-17A level (n=2, control 2.18)?
A: Its IL-17A level is 3.05 pg/mL.

Q: And the IL-15 level (n=2, control 2.88)?
A: The IL-15 level was 1.82 pg/mL.

Q: What about the GM-CSF level (n=2, control 3.83) of the same substance?
A: Its GM-CSF level is 4.97 pg/mL.

Q: What about the TGF-a level (n=2, control 4.84) of the same substance?
A: The TGF-a level was 3.88 pg/mL.

Q: What about the IL-9 level (n=2, control 6.65) of the same substance?
A: The IL-9 level was 6.65 pg/mL.

Q: What about the TNFb level (n=2, control 10.12) of the same substance?
A: The TNFb level was 11.76 pg/mL.

Q: And the IFNa2 level (n=2, control 15.98)?
A: Its IFNa2 level is 11.65 pg/mL.

Q: What about the EGF level (n=2, control 18.24) of the same substance?
A: Its EGF level is 17.26 pg/mL.

Q: And the IL-1a level (n=2, control 18.92)?
A: Its IL-1a level is 25.51 pg/mL.

Q: And the IL-10 level (n=2, control 22.54, p = 0.23)?
A: Its IL-10 level is 23.6 pg/mL and 23.64 pg/mL.

Q: What about the IL-13 level (n=2, control 25.51) of the same substance?
A: Its IL-13 level is 23.32 pg/mL.

Q: What about the IL-1b level (n=2, control 25.75, p = 0.094) of the same substance?
A: The IL-1b level was 32 pg/mL and 32.49 pg/mL.

Q: What about the IL-22 level (n=2, control 27.2) of the same substance?
A: Its IL-22 level is 27.2 pg/mL.

Q: And the Fractalkine level (n=2, control 28.72)?
A: The Fractalkine level was 25.92 pg/mL.

Q: And the M-GSF level (n=2, control 32.5)?
A: Its M-GSF level is 62.71 pg/mL.

Q: What about the “IL-12 (p40) level” value (n=2, control 32.89) of the same substance?
A: The value was 37.68 pg/mL.

Q: And the VEGFa level (n=2, control 35.58)?
A: The VEGFa level was 36.32 pg/mL.

Q: What about the MIP-1a level (n=2, control 45.5, p = 0.0001) of the same substance?
A: Its MIP-1a level is 109 pg/mL and 109.63 pg/mL.

Q: What about the FGF-2 level (n=2, control 52.5) of the same substance?
A: Its FGF-2 level is 47.27 pg/mL.

Q: And the PDGF-AA level (n=2, control 62.71)?
A: Its PDGF-AA level is 47.99 pg/mL.

Q: And the IL-27 level (n=2, control 63.66)?
A: The IL-27 level was 67.29 pg/mL.

Q: And the MIP-1b level (n=2, control 78.19, p = 0.0004)?
A: The MIP-1b level was 2750 pg/mL.

Q: What about the IL-1RA level (n=2, control 86.47) of the same substance?
A: Its IL-1RA level is 65.97 pg/mL.

Q: And the sCD40L level (n=2, control 108.76)?
A: The sCD40L level was 102.18 pg/mL.

Q: And the TNFa level (n=2, control 110.45, p = 0.15)?
A: The TNFa level was 123 pg/mL and 123.49 pg/mL.

Q: And the G-CSF level (n=2, control 121.45, p = 0.002)?
A: The G-CSF level was 220 pg/mL and 220.28 pg/mL.

Q: And the MIG level (n=2, control 606.02, p = 0.003)?
A: The MIG level was 342 pg/mL and 342.19 pg/mL.

Q: And the PDGF-AB/BB level (n=2, control 1327)?
A: Its PDGF-AB/BB level is 1070 pg/mL.

Q: And the IP-10 level (n=2, control 1716)?
A: The IP-10 level was 11.29 pg/mL.

Q: And the MDC level (n=2, control 3407)?
A: Its MDC level is 3208 pg/mL.

Q: And the IL-6 level (n=2, control 4145)?
A: The IL-6 level was 4861 pg/mL.

Q: What about the MCP-3 level (n=2, control 4963) of the same substance?
A: The MCP-3 level was 3343 pg/mL.

Q: And the GROa level (n=2, control 5512)?
A: The GROa level was 5987 pg/mL.

Q: And the MCP-1 level (n=2, control 8325)?
A: The MCP-1 level was 7953 pg/mL.

Q: What about the IL-7 level (n=2, control <0.30) of the same substance?
A: The IL-7 level was <0.30↓ pg/ml.

Q: What about the IL-5 level (n=2, control <0.35) of the same substance?
A: The IL-5 level was <0.35↓ pg/ml.

Q: And the IL-3 level (n=2, control <0.55)?
A: The IL-3 level was <0.55↓ pg/ml.

Q: What about the “IL-12 (p70) level” value (n=2, control <1.71) of the same substance?
A: The value was <1.71↓ pg/ml.

Q: What about the Eotaxin level (n=2, control <2.91) of the same substance?
A: Its Eotaxin level is <2.91↓ pg/ml.

Q: And the IL-17F level (n=2, control <12.19)?
A: The IL-17F level was <12.19↓ pg/ml.

Q: And the IL-17E/IL-25 level (n=2, control <19.43)?
A: The IL-17E/IL-25 level was <19.43↓ pg/ml.

Q: What about the IL-8 level (n=2, control >21942) of the same substance?
A: Its IL-8 level is >21942↑ pg/ml.
